The subject of the assay is Hedgehog signaling pathway. In words: Gli-Luc luciferase reporter gene assay in C3H10T1/2/Gli-Luc cells under Shh-N stimulation. Type of assay: cell-based. Conditions: luciferase RLU, read-out: biological activity: IC50 of the inhibitory activities of compounds on the hedgehog pathway. The method, boiled down: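 IC50 derived by curve fitting of luciferase RLU against log compound concentration. Stable C3H10T1/2/Gli-Luc cells, seeded overnight, were co-treated 24 h with serially diluted compound (7 points, duplicate wells) and 30 nM Shh-N-containing HEK293 conditioned medium before lysis and luminescence readout.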
For orientation: A reporter such as luciferase makes a cellular process visible.

This note sets out measurements from US9938292B2 (GUANGDONG ZHONGSHENG PHARMACEUTICAL CO., LTD, priority 2014, dated 2018).

Where two headings read alike, the source gives them in different places.

A word on the IC50: it is the point on the concentration scale where inhibition reaches its midpoint.

Consider `C[C@@H]1CN(c2ccc(-c3cnc4c(-c5ccc(C#N)cc5)cccc4c3)cc2)C[C@H](C)O1` [Embodiment 127, 4-(3-(4-((2S,6R)-2,6-dimethylmorpholino)phenyl)quinolin-8-yl)benzonitrile], for which, under “Mus musculus, C3H 10T1/2, 24 h”, the IC50 lay within 100 to 500 nM. With `COC(=O)c1c(-c2ccc(N3C[C@@H](C)O[C@@H](C)C3)cc2)cnc2c(-c3ccc(C#N)cc3)cccc12` [Embodiment 128, methyl 8-(4-cyanophenyl)-3-(4-((2S,6R)-2,6-dimethylmorpholino)phenyl)quinoline-4-carboxylate], the IC50 (Mus musculus, C3H 10T1/2, 24 h) fell in the range of 500 to 1000 nM.

As to `CC(=O)Nc1c(-c2ccc(N3C[C@@H](C)O[C@@H](C)C3)cc2)cnc2c(-c3ccc(C#N)cc3)cccc12` [Embodiment 129, N-(8-(4-cyanophenyl)-3-(4-((2S,6R)-2,6-dimethylmorpholino)phenyl)quinolin-4-yl) acetamide], where the note is “Mus musculus, C3H 10T1/2, 24 h”, the IC50 lay in the range of 50 to 100 nM. On the same count and under the same terms, to `C[C@@H]1CN(c2ccc(-c3cnc4c(-c5ccc(C#N)cc5)cccc4c3NS(C)(=O)=O)cc2)C[C@H](C)O1` [Embodiment 130] belongs 500 to 1000 nM; to `Cc1c(-c2ccc(N3C[C@@H](C)O[C@@H](C)C3)nc2)cnc2c(-c3ccc(C#N)cc3)cccc12` [Embodiment 132, 4-(3-(6-((2S,6R)-2,6-dimethylmorpholino)pyridin-3-yl)-4-methylquinolin-8-yl) benzonitrile], at most 50 nM. Still for that read-out and setting: next, `CCc1c(-c2ccc(N3C[C@@H](C)O[C@@H](C)C3)nc2)cnc2c(-c3ccc(C#N)cc3)cccc12` [Embodiment 133]: at most 50 nM; `C[C@@H]1CN(c2ccc(-c3cnc4c(-c5ccc(C#N)cc5)cccc4c3C3CC3)cn2)C[C@H](C)O1` [Embodiment 134]: at most 50 nM. The same measure, in the same setting: to `COc1c(-c2ccc(N3C[C@@H](C)O[C@@H](C)C3)cc2)cnc2c(-c3ccc(C#N)cc3)cc(Cl)cc12` [Embodiment 135, 4-(6-chloro-3-(4-((2S,6R)-2,6-dimethylmorpholino)phenyl)-4-methoxyquinolin-8-yl) benzonitrile] belongs 100 to 500 nM. In the case of `COc1c(-c2ccc(N3CC(C)OC(C)C3)cc2)cnc2c(-c3ccc(C#N)cc3)cc(F)cc12` (stereo not drawn) [Embodiment 136, 4-(3-(4-(2,6-dimethylmorpholino)phenyl)-6-fluoro-4-methoxyquinolin-8-yl) benzonitrile], for the setting “Mus musculus, C3H 10T1/2, 24 h”, the IC50 lay within 50 to 100 nM. In the case of `COc1c(-c2ccc(N3C[C@@H](C)O[C@@H](C)C3)cc2)cnc2c(-c3ccc(OC(F)(F)F)cc3)cc(F)cc12` [Embodiment 137], the IC50 (Mus musculus, C3H 10T1/2, 24 h) fell in the range of 100 to 500 nM. Still for that read-out and setting: next, `COc1c(-c2ccc(N3C[C@@H](C)O[C@@H](C)C3)cc2)cnc2c(-c3ccc(C#N)cc3)ccc(F)c12` [Embodiment 138]: at most 50 nM; `C[C@@H]1CN(c2ccc(-c3cnc4c(-c5ccc(C#N)cc5)cccc4c3N3CCC3)cn2)C[C@H](C)O1` [Embodiment 139, 4-(4-(azetidin-1-yl)-3-(6-((2S,6R)-2,6-dimethylmorpholino)pyridin-3-yl)quinolin-8-yl) benzonitrile]: 50 to 100 nM; `CCC(=O)N1[C@H](C)CN(c2ccc(-c3cnc4c(-c5ccc(C#N)cc5)cccc4c3O)cn2)C[C@@H]1C` [Embodiment 140, 4-(3-(6-((3S,5R)-3,5-dimethyl-4-propionylpiperazin-1-yl)pyridin-3-yl)-4-hydroxyquinolin-8-yl)benzonitrile]: 500 to 1000 nM. In the case of `COc1c(-c2ccc(N3C[C@@H](C)O[C@@H](C)C3)cc2)c(C(F)(F)F)nc2c(-c3ccc(C#N)cc3)cccc12` [Embodiment 141, 4-(3-(4-((2S,6R)-2,6-dimethylmorpholino)phenyl)-4-methoxy-2-(trifluoromethyl)quinolin-8-yl)benzonitrile], the IC50 (Mus musculus, C3H 10T1/2, 24 h) lay in the range of 100 to 500 nM.

For the compound `COc1cc(-c2ccc(N3C[C@@H](C)O[C@@H](C)C3)cc2)nc2cccc(-c3ccc(C#N)cc3)c12` [Embodiment 142, 4-(2-(4-((2R,6S)-2,6-dimethylmorpholino)phenyl)-4-methoxyquinolin-5-yl) benzonitrile], the concentration for half-maximal inhibition (IC50) (Mus musculus, C3H 10T1/2, 24 h) was 500 to 1000 nM. The same measure, in the same setting: next, `CCOc1c(-c2ccc(N3C[C@@H](C)O[C@@H](C)C3)cc2)cnc2c(-c3ccc(C#N)cc3)cccc12` [Embodiment 143, 4-(3-(4-((2S,6R)-2,6-dimethylmorpholino)phenyl)-4-ethoxyquinolin-8-yl)benzonitrile]: at most 50 nM; `CC(C)Oc1c(-c2ccc(N3C[C@@H](C)O[C@@H](C)C3)cc2)cnc2c(-c3ccc(C#N)cc3)cccc12` [Embodiment 144]: 100 to 500 nM. Consider `C[C@@H]1CN(c2ccc(-c3cnc4c(-c5ccc(C#N)cc5)cccc4c3OC(F)F)cc2)C[C@H](C)O1` [Embodiment 145], for which the IC50 (Mus musculus, C3H 10T1/2, 24 h) was at most 50 nM. Same read-out and setting: to `C[C@@H]1CN(c2ccc(-c3cnc4c(-c5ccc(C#N)cc5)cccc4c3OCCN(C)C)cc2)C[C@H](C)O1` [Embodiment 146] belongs 500 to 1000 nM; to `COc1c(-c2ccc(N3C[C@@H](C)O[C@@H](C)C3)cc2)cnc2c(-c3ccc(C#N)cc3)ccnc12` [Embodiment 147, 4-(7-(4-((2S,6R)-2,6-dimethylmorpholino)phenyl)-8-methoxy-1,5-naphthyridin-4-yl) benzonitrile], 100 to 500 nM. Still for that read-out and setting: next, `COc1c(-c2ccc(N3C[C@@H](C)O[C@@H](C)C3)cc2)cnc2c(-c3ccc(C#N)cc3)nccc12` [Embodiment 148, 4-(3-(4-((2S,6R)-2,6-dimethylmorpholino)phenyl)-4-methoxy-1,7-naphthyridin-8-yl) benzonitrile]: 50 to 100 nM. For `CCC(=O)N1[C@H](C)CN(c2ccc(-c3cnc4c(-c5ccc(C#N)cc5)nccc4c3OC)cn2)C[C@@H]1C` [Embodiment 149, 4-(3-(6-((3S,5R)-3,5-dimethyl-4-propionylpiperazizin-1-yl)pyridin-3-yl)-4-methoxy-1,7-naphthyridin-8-yl)benzonitrile], the IC50 (Mus musculus, C3H 10T1/2, 24 h) is at most 50 nM. For the compound `C[C@@H]1CN(c2ccc(-c3c([O-])c4cccc(-c5ccc(C#N)cc5)c4n[n+]3C)cc2)C[C@H](C)O1` [Embodiment 150, 8-(4-cyanophenyl)-3-(4-((2R,6S)-2,6-dimethylmorpholino)phenyl)-2-methylcinnolin-2-ium-4-olate], the IC50 (Mus musculus, C3H 10T1/2, 24 h) was in the range of 500 to 1000 nM.

Consider `CCC(=O)N1[C@H](C)CN(c2ccc(-c3nnc4c(-c5ccc(C#N)cc5)cccc4c3OC)cn2)C[C@@H]1C` [Embodiment 151, 4-(3-(6-(3,5-dimethyl-4-propionylpiperazin-1-yl)pyridin-3-yl)-4-methoxycinnolin-8-yl)benzonitrile], for which, where the note is “Mus musculus, C3H 10T1/2, 24 h”, the IC50 was at most 50 nM. As to `COc1c(-c2ccc(N3C[C@@H](C)O[C@@H](C)C3)cc2)nnc2c(-c3ccc(C#N)cc3)cccc12` [Embodiment 152, 4-(3-(4-((2R,6S)-2,6-dimethylmorpholino)phenyl)-4-methoxycinnolin-8-yl) benzonitrile], the concentration for half-maximal inhibition (IC50) (Mus musculus, C3H 10T1/2, 24 h) was at most 50 nM. On the same count and under the same terms, next, `C[C@@H]1CN(c2ccc(-c3cnc4c(-c5ccc(C#N)cc5)cncc4c3Cl)cc2)C[C@H](C)O1` [Embodiment 153, 4-(4-chloro-3-(4-((2S,6R)-2,6-dimethylmorpholino)phenyl)-1,6-naphthyridin-8-yl) benzonitrile]: 100 to 500 nM. Still for that read-out and setting: next, `C[C@@H]1CN(c2ccc(-c3cnc4c(-c5ccc(C#N)cc5)cncc4c3N(C)C)cc2)C[C@H](C)O1` [Embodiment 155, 4-(4-(dimethylamino)-3-(4-((2S,6R)-2,6-dimethylmorpholino)phenyl)-1,6-naphthyridin-8-yl)benzonitrile]: 100 to 500 nM. For the compound `COc1c(-c2ccc(N3C[C@@H](C)O[C@@H](C)C3)cc2)cnc2c1CCCC2(O)c1ccc(C#N)cc1` (stereo partly drawn) [Embodiment 156, 4-(3-(4-((2S,6R)-2,6-dimethylmorpholino)phenyl)-8-hydroxy-4-methoxy-5,6,7,8-tetra hydroquinolin-8-yl)benzonitrile], the IC50 (Mus musculus, C3H 10T1/2, 24 h) was 500 to 1000 nM.

Regarding `COc1c(-c2ccc(N3C[C@@H](C)O[C@@H](C)C3)cc2)cnc2c1CCCC2(OC)c1ccc(C#N)cc1` (stereo partly drawn) [Embodiment 157, 4-(3-(4-((2S,6R)-2,6-dimethylmorpholino)phenyl)-4,8-dimethoxy-5,6,7,8-tetrahydroquinolin-8-yl)benzonitrile], the IC50 (Mus musculus, C3H 10T1/2, 24 h) lay within 1000 to 5000 nM. On the same count and under the same terms, next, `COc1c(-c2ccc(N3C[C@@H](C)O[C@@H](C)C3)nc2)cnc2c(-c3ccc(C#N)cc3)cccc12` [Embodiment 158, 4-(3-(6-((2S,6R)-2,6-dimethylmorpholino)pyridin-3-yl)-4-methoxyquinolin-8-yl) benzonitrile]: at most 50 nM; `COc1c(-c2ccc(N3C[C@@H](C)O[C@@H](C)C3)nc2)cnc2c(-c3ccc(C(F)(F)F)cc3)cccc12` [Embodiment 159]: at most 50 nM; `COc1c(-c2ccc(N3C[C@@H](C)O[C@@H](C)C3)nc2)cnc2c(-c3ccc(OC(F)(F)F)cc3)cccc12` [Embodiment 160]: at most 50 nM. The same measure, in the same setting: to `COc1c(-c2ccc(N3C[C@@H](C)O[C@@H](C)C3)nc2)cnc2c(-c3ccc(S(C)(=O)=O)cc3)cccc12` [Embodiment 161] belongs at most 50 nM; to `COc1c(-c2ccc(N3C[C@@H](C)O[C@@H](C)C3)nc2)cnc2c(-c3ccccc3)cccc12` [Embodiment 162], at most 50 nM.

`COc1c(-c2ccc(N3C[C@@H](C)O[C@@H](C)C3)nc2)cnc2c(-c3ccc(C)nc3)cccc12` [Embodiment 163]: the IC50 (Mus musculus, C3H 10T1/2, 24 h) fell in the range of 100 to 500 nM. The same measure, in the same setting: next, `COc1c(-c2ccc(N3C[C@@H](C)O[C@@H](C)C3)nc2)cnc2c(-c3ccc(C(C)C)nc3Cl)cccc12` [Embodiment 164]: 100 to 500 nM. For the compound `COc1c(-c2ccc(N3C[C@@H](C)O[C@@H](C)C3)nc2)cnc2c(-c3ccnn3C)cccc12` [Embodiment 165], where the note is “Mus musculus, C3H 10T1/2, 24 h”, the IC50 fell in the range of 100 to 500 nM. Regarding `COc1c(-c2ccc(N3C[C@@H](C)O[C@@H](C)C3)nc2C)cnc2c(-c3ccc(C#N)cc3)cccc12` [Embodiment 166, 4-(3-(6-((2S,6R)-2,6-dimethylmorpholino)-2-methylpyridin-3-yl)-4-methoxyquinolin-8-yl)benzonitrile], the IC50 (Mus musculus, C3H 10T1/2, 24 h) is at most 50 nM.

As to `COc1c(-c2cnc(N3C[C@@H](C)O[C@@H](C)C3)cc2C)cnc2c(-c3ccc(C#N)cc3)cccc12` [Embodiment 167], under “24 h”, the IC50 was at most 50 nM.
